These results are taken from patent US7300946B2, “N-(substituted arylmethyl)-4-(disubstituted methyl) piperidines and pyridines” (Bayer CropScience AG, priority 2002, dated 2007).

This experiment deals with tobacco budworm (Heliothis virescens [Fabricius]). Put plainly: surface-treated diet test against the tobacco budworm. The experiment is classed as in vivo. Conditions: tobacco budworm second instar larvae, 0.25 millimoles of candidate insecticide on the surface of the diet, five-day exposure; for Percent Mortality: compared to total number of insects infested; for Percent Growth Inhibition: inhibition of insect weight relative to untreated controls. In outline:
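Wheat germ artificial diet surface-treated with 40 µL of 50 mM DMSO stock diluted 1:7 in 1:1 water/acetone (0.25 millimolar on diet), or sub-multiples for rate tests. One second-instar larva per well, 25° C, 60% RH, 5 days; percent weight inhibition vs DMSO controls and percent mortality.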

Structures are written as SMILES.

On to `O=C(Nc1cc(F)cc(F)c1)OC(C1=CC[N+]([O-])(Cc2ccc(Oc3ncccn3)cc2)CC1)c1ccc(C(F)(F)F)cc1` (stereo not drawn) [Compound 787], for which the “Percent Mortality” value stood at 100% and the “Percent Growth Inhibition” value worked out at 100%.

Regarding `CC(=O)Oc1ccc(CN2CCC(=C(c3ccc(C(F)(F)F)cc3)c3ccc(C(F)(F)F)cc3)CC2)cc1` [Compound 788], the “Percent Mortality” value came out at 33% and the “Percent Growth Inhibition” value is 87%.

`CNC(=O)Oc1ccc(CN2CCC(=C(c3ccc(Cl)cc3)c3ccc(Cl)cc3)CC2)cc1` [Compound 789]: the “Percent Mortality” value was 100% and the “Percent Growth Inhibition” value stood at 100%.

On to `CNC(=O)Oc1ccc(CN2CCC(=C(c3ccc(C(F)(F)F)cc3)c3ccc(C(F)(F)F)cc3)CC2)cc1` [Compound 790], for which the “Percent Mortality” value is on record as 100% and the “Percent Growth Inhibition” value was found to be 100%.

For `CNC(=O)Oc1ccc(CN2CCC(=C(c3ccc(OC(F)(F)F)cc3)c3ccc(OC(F)(F)F)cc3)CC2)cc1` [Compound 791], the “Percent Mortality” value stood at 100% and the “Percent Growth Inhibition” value worked out at 100%.

For the compound `CC(C)NC(=O)Oc1ccc(CN2CCC(=C(c3ccc(C(F)(F)F)cc3)c3ccc(C(F)(F)F)cc3)CC2)cc1` [Compound 792], the “Percent Mortality” value is listed as 100% and the “Percent Growth Inhibition” value was determined as 100%.

As to `CC(C)OC(=O)Nc1ccc(CN2CCC(=C(c3ccccc3)c3ccccc3)CC2)cc1` [Compound 793], the “Percent Mortality” value worked out at 0% and the “Percent Growth Inhibition” value came out at 76%.

`CC(C)OC(=O)Nc1ccc(CN2CCC(=C(c3ccc(F)cc3)c3ccc(F)cc3)CC2)cc1` [Compound 794]: the “Percent Mortality” value was found to be 83% and the “Percent Growth Inhibition” value was 100%.

As to `CC(C)OC(=O)Nc1ccc(CN2CCC(=C(c3ccc(Cl)c(Cl)c3)c3ccc(Cl)c(Cl)c3)CC2)cc1` [Compound 795], the “Percent Mortality” value is given as 50% and the “Percent Growth Inhibition” value stood at 94%.

Take `CC(C)OC(=O)Nc1ccc(CN2CCC(=C(c3ccc(Cl)c(F)c3)c3ccc(Cl)c(F)c3)CC2)cc1` [Compound 796]: the “Percent Mortality” value was 100% and the “Percent Growth Inhibition” value came to 100%.

As for `C=CCOC(=O)Nc1ccc(CN2CCC(=C(c3ccc(C(F)(F)F)cc3)c3ccc(C(F)(F)F)cc3)CC2)cc1` [Compound 797], the “Percent Mortality” value amounted to 100% and the “Percent Growth Inhibition” value came to 100%.

For the compound `CC=CCOC(=O)Nc1ccc(CN2CCC(=C(c3ccc(Cl)cc3)c3ccc(Cl)cc3)CC2)cc1` [Compound 798], the “Percent Mortality” value came to 0% and the “Percent Growth Inhibition” value came to 59%.

For `CC=CCOC(=O)Nc1ccc(CN2CCC(=C(c3ccc(C(F)(F)F)cc3)c3ccc(C(F)(F)F)cc3)CC2)cc1` [Compound 799], the “Percent Mortality” value is listed as 0% and the “Percent Growth Inhibition” value came to 83%.

Take `C=C(C)COC(=O)Nc1ccc(CN2CCC(=C(c3ccc(Cl)cc3)c3ccc(Cl)cc3)CC2)cc1` [Compound 800]: the “Percent Mortality” value was determined as 0% and the “Percent Growth Inhibition” value was 86%.

Take `C#CCOC(=O)Nc1ccc(CN2CCC(=C(c3ccc(Cl)cc3)c3ccc(Cl)cc3)CC2)cc1` [Compound 801]: the “Percent Mortality” value was found to be 100% and the “Percent Growth Inhibition” value amounted to 100%.

As to `C#CCOC(=O)Nc1ccc(CN2CCC(=C(c3ccc(C(F)(F)F)cc3)c3ccc(C(F)(F)F)cc3)CC2)cc1` [Compound 802], the “Percent Mortality” value is given as 100% and the “Percent Growth Inhibition” value stood at 100%.

`CS(=O)(=O)Oc1ccc(CN2CCC(=C(c3ccc(C(F)(F)F)cc3)c3ccc(C(F)(F)F)cc3)CC2)cc1` [Compound 803]: the “Percent Mortality” value stood at 100% and the “Percent Growth Inhibition” value is 100%.

For the compound `CC(C)S(=O)(=O)Oc1ccc(CN2CCC(=C(c3ccc(C(F)(F)F)cc3)c3ccc(C(F)(F)F)cc3)CC2)cc1` [Compound 804], the “Percent Mortality” value worked out at 100% and the “Percent Growth Inhibition” value was determined as 100%.

Consider `CS(=O)(=O)Nc1ccc(CN2CCC(=C(c3ccc(C(F)(F)F)cc3)c3ccc(C(F)(F)F)cc3)CC2)cc1` [Compound 805], for which the “Percent Mortality” value is 33% and the “Percent Growth Inhibition” value turned out to be 100%.

For the compound `Fc1ccccc1Oc1ccc(CN2CCC(=C(c3ccc(C(F)(F)F)cc3)c3ccc(C(F)(F)F)cc3)CC2)cc1` [Compound 806], the “Percent Mortality” value was determined as 0% and the “Percent Growth Inhibition” value was found to be 100%.

For the compound `FC(F)(F)c1ccc(C(=C2CCN(Cc3ccc(-c4ccccn4)cc3)CC2)c2ccc(C(F)(F)F)cc2)cc1` [Compound 807], the “Percent Mortality” value is listed as 100% and the “Percent Growth Inhibition” value is recorded as 100%.

In the case of `c1ccc(C(=C2CCN(Cc3ccc(Oc4ccccn4)cc3)CC2)c2ccccc2)cc1` [Compound 808], the “Percent Mortality” value is recorded as 0% and the “Percent Growth Inhibition” value was 64%.

For the compound `Clc1ccc(C(=C2CCN(Cc3ccc(Oc4ccccn4)cc3)CC2)c2ccc(Cl)cc2)cc1` [Compound 809], the “Percent Mortality” value is 100% and the “Percent Growth Inhibition” value was 100%.

In the case of `Fc1ccc(C(=C2CCN(Cc3ccc(Oc4ccccn4)cc3)CC2)c2ccc(F)cc2)cc1` [Compound 810], the “Percent Mortality” value is recorded as 100% and the “Percent Growth Inhibition” value came to 100%.

As to `FC(F)(F)c1ccc(C(=C2CCN(Cc3ccc(Nc4ccccn4)cc3)CC2)c2ccc(C(F)(F)F)cc2)cc1` [Compound 811], the “Percent Mortality” value was 100% and the “Percent Growth Inhibition” value is reported as 100%.

For `Clc1ccc(C(=C2CCN(Cc3ccc(Oc4ncccn4)cc3)CC2)c2ccc(Cl)cc2)cc1` [Compound 812], the “Percent Mortality” value came to 100% and the “Percent Growth Inhibition” value is on record as 100%.

Turning to `Clc1ccc(C(=C2CCN(Cc3ccc(Oc4ncccn4)cc3)CC2)c2ccc(Cl)c(Cl)c2)cc1Cl` [Compound 813], the “Percent Mortality” value worked out at 100% and the “Percent Growth Inhibition” value is 100%.

Turning to `FC(F)(F)c1ccc(C(=C2CCN(Cc3ccc(Oc4ncccn4)cc3)CC2)c2ccccc2Cl)cc1` [Compound 814], the “Percent Mortality” value was determined as 100% and the “Percent Growth Inhibition” value came to 100%.

Take `FC(F)(F)c1ccc(C(=C2CCN(Cc3ccc(Oc4ncccn4)cc3)CC2)c2cccc(Cl)c2)cc1` [Compound 815]: the “Percent Mortality” value worked out at 100% and the “Percent Growth Inhibition” value was 100%.

On to `FC(F)(F)c1ccc(C(=C2CCN(Cc3ccc(Oc4ncccn4)cc3)CC2)c2ccc(Cl)cc2)cc1` [Compound 816], for which the “Percent Mortality” value was found to be 100% and the “Percent Growth Inhibition” value turned out to be 100%.

On to `Fc1cccc(C(=C2CCN(Cc3ccc(Oc4ncccn4)cc3)CC2)c2ccc(C(F)(F)F)cc2)c1` [Compound 817], for which the “Percent Mortality” value came out at 100% and the “Percent Growth Inhibition” value is listed as 100%.

For the compound `FC(F)(F)c1ccc(C(=C2CCN(Cc3ccc(Oc4ncccn4)cc3)CC2)c2ccc(Cl)c(Cl)c2)cc1` [Compound 818], the “Percent Mortality” value was found to be 100% and the “Percent Growth Inhibition” value worked out at 100%.

Regarding `FC(F)(F)c1ccc(C(=C2CCN(Cc3ccc(Oc4ncccn4)cc3)CC2)c2cc(Cl)cc(Cl)c2)cc1` [Compound 819], the “Percent Mortality” value is given as 50% and the “Percent Growth Inhibition” value came to 100%.

In the case of `Fc1cc(F)cc(C(=C2CCN(Cc3ccc(Oc4ncccn4)cc3)CC2)c2ccc(C(F)(F)F)cc2)c1` [Compound 820], the “Percent Mortality” value is recorded as 50% and the “Percent Growth Inhibition” value is 92%.

Regarding `Fc1cc(C(=C2CCN(Cc3ccc(Oc4ncccn4)cc3)CC2)c2ccc(C(F)(F)F)cc2)ccc1Cl` [Compound 821], the “Percent Mortality” value was found to be 100% and the “Percent Growth Inhibition” value is given as 100%.

Turning to `FC(F)(F)c1ccc(C(=C2CCN(Cc3ccc(Oc4ncccn4)cc3)CC2)c2cccc(C(F)(F)F)c2)cc1` [Compound 822], the “Percent Mortality” value came out at 100% and the “Percent Growth Inhibition” value turned out to be 100%.

Take `FC(F)(F)c1ccc(C(=C2CCN(Cc3ccc(OC4=NCCCN4)cc3)CC2)c2ccc(C(F)(F)F)cc2)cc1` [Compound 823]: the “Percent Mortality” value is 67% and the “Percent Growth Inhibition” value turned out to be 100%.

Turning to `FC(F)(F)c1ccc(C(=C2CCN(Cc3ccc(Oc4ncccn4)cc3)CC2)c2ccc(C(F)(F)F)cc2)cc1` [Compound 824], the “Percent Mortality” value is given as 100% and the “Percent Growth Inhibition” value was 100%.

Consider `FC(F)(F)c1ccc(C(=C2CCN(Cc3ccc(Oc4cnccn4)cc3)CC2)c2ccc(C(F)(F)F)cc2)cc1` [Compound 825], for which the “Percent Mortality” value was 83% and the “Percent Growth Inhibition” value was found to be 100%.

Turning to `FC(F)(F)c1ccc(C(=C2CCN(Cc3ccc(Oc4ccc(Cl)nn4)cc3)CC2)c2ccc(C(F)(F)F)cc2)cc1` [Compound 826], the “Percent Mortality” value is 100% and the “Percent Growth Inhibition” value amounted to 100%.

For the compound `CNC(=O)Oc1ccc(C[N+]2([O-])CCC(=C(c3ccc(Cl)cc3)c3ccc(Cl)cc3)CC2)cc1` (stereo not drawn) [Compound 827], the “Percent Mortality” value is listed as 100% and the “Percent Growth Inhibition” value is 100%.

On to `CNC(=O)Oc1ccc(C[N+]2([O-])CCC(=C(c3ccc(C(F)(F)F)cc3)c3ccc(C(F)(F)F)cc3)CC2)cc1` (stereo not drawn) [Compound 828], for which the “Percent Mortality” value came to 100% and the “Percent Growth Inhibition” value amounted to 100%.

On to `CNC(=O)Oc1ccc(C[N+]2([O-])CCC(=C(c3ccc(OC(F)(F)F)cc3)c3ccc(OC(F)(F)F)cc3)CC2)cc1` (stereo not drawn) [Compound 829], for which the “Percent Mortality” value worked out at 100% and the “Percent Growth Inhibition” value was 100%.

With `CC(C)NC(=O)Oc1ccc(C[N+]2([O-])CCC(=C(c3ccc(C(F)(F)F)cc3)c3ccc(C(F)(F)F)cc3)CC2)cc1` (stereo not drawn) [Compound 830], the “Percent Mortality” value is on record as 100% and the “Percent Growth Inhibition” value was found to be 100%.

On to `CC(C)OC(=O)Nc1ccc(C[N+]2([O-])CCC(=C(c3ccc(Cl)cc3)c3ccc(Cl)cc3)CC2)cc1` (stereo not drawn) [Compound 831], for which the “Percent Mortality” value is recorded as 100% and the “Percent Growth Inhibition” value is listed as 100%.
